Measured values: patent US12459952B2, “TREM2 modulators” (Muna Therapeutics ApS, priority 2024, dated 2025)

Biological target: T1, Human TREM2 (Homo sapiens, UniProt Q9NZC2)
T1 construct: expressed in transfected cells
Assay: Human TREM2 cellular phospho-Syk AlphaLISA assay in HEK293/DAP12+TREM2 stable cell line
Assay type: cell-based
Details: HEK293/DAP12+TREM2 cells; for Emax: maximal response relative to the maximal response of the reference agonist, phospho-Syk AlphaLISA; for EC50: phospho-Syk (Tyr525/526) AlphaLISA signal, 30 min incubation
From the text: Human TREM2, in vitro Measurement of Triggering Receptor Expressed on Myeloid Cells 2 activity using cellular phosphorylation of Spleen Tyrosine Kinase (“Syk”) Assay
HEK-293 cells were co-transfected with separate plasmids encoding TREM2 and DAP12 to generate a stable cell line. After antibiotic selection, functional clone pool analysis and two successive limiting dilutions, the final clone “HEK293/DAP12+TREM2” underwent a qPCR analysis and a pharmacological validation.
TREM2 signaling through DAP12 was monitored in the HEK293/DAP12+TREM2 stable cell line by measuring the phosphorylation levels of the Syk kinase using the commercially available AlphaLISA SureFire Ultra p-SYK (Tyr525/526) Assay Kit (PerkinElmer #ALSU-PSYK), based on the Perkin Elmer AlphaScreen/AlphaLISA technology.
Compounds are transferred to the test plate and tested in full dose response, 8 concentrations in quadruplicate data points. Compound serial dilutions were performed at Cybi-Felix instrument in 100% DMSO and the dose response curves were assembled in automated fashion in 384MPT at Hamilton STARlet instrument. All the stock solutions were prepared at 20 mM in 100% DMSO. For compounds testing, the starting concentration was 100 μM, dilution steps 1:6. A different concentration's range was adapted for compound's activity based on the preliminary results. Finally, a 384MPT reformatted for all compounds at 8 concentrations, quadruplicates, was used as “mother to child” process with a CyBi@-Well dispenser in which 1 μL of each compound was moved into a destination plate pre-filled with […] of EMEM cell culture medium (BIOWHITTAKER_cat.BE12-125F), thus obtaining 3× concentrated compounds working solution. In columns 1-2 and 23-24 the control wells were added. In particular, dose response curves of a reference control agonist were included in column 1 and 24 as reference control agonist (Reference control agonists used include Human TREM2 polyclonal Antibody AF1828: R&D Systems; Human TREM2 monoclonal Antibody MAB1828: R&D Systems). The dose response curves were tested starting at 30 μM, dilution step 1:6. Both “source” compound plate and “destination” compound plate were barcoded and a relationship between the two plates was thus generated.
HEK293/DAP12+TREM2 cells were cultured in EMEM medium supplemented with IX Penicillin/Streptomycin (BIOWHITTAKER_cat.DE17-602E), ULTRAGLUTAMINE I 200 mM, 10% Fetal Bovine Serum plus antibiotics referred to as “HEK293 Culture Medium”. The day before the experiment, cells were detached by gentle wash with DPBS, followed by 5 min incubation at 37° C. with Trypsin solution. Cells were then diluted in HEK293 Culture Medium without antibiotics, counted and seeded into 384-well poly-D-Lysine coated microplates black/clear bottom (GREINER 781946) at a density of 10,000 cells/well in 25 μL/well by the use of a MATRIX WellMate dispenser. Plates were placed into a humidified cell culture incubator at 37° C. with 5% CO2 until the experimental day. 20-24 hours after seeding mature medium was removed and replaced with 10 μL/well of EMEM cell medium supplemented with 0.1% Pluronic F-68 non-ionic surfactant (Thermofisher, 24040032), referred to as “Assay Buffer”, using the CyBi@-Well instrument. Then 5 μL/well of Assay Buffer containing 3× concentrated test compounds or the reference control agonist (in 0.5% final DMSO concentration) were added to the cells with the CyBi@-Well instrument. Cell plates were incubated for 30 min into a humidified cell culture incubator at 37° C. with 5% CO2, then the medium was removed by manually discard. 20 μL/well of lysis buffer were dispensed using the CyBi@-Well instrument and plates were incubated for 10 min at room temperature on a plate shaker (350 rpm). Then, 10 μL/well of lysate were transferred to the Alpha plates.
The CyBi@-Well instrument was used to dispense 5 μL/well of AlphaLISA Acceptor Bead Solution in IX Immunoassay buffer (Perkin Elmer AL000F). […]

T1 sequence (Q9NZC2 19-230): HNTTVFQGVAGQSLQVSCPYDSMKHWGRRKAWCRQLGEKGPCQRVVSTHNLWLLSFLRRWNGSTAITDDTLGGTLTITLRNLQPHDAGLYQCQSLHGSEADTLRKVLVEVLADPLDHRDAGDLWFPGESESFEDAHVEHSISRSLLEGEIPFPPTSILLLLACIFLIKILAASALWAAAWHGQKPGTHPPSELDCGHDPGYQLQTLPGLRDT
T1 sequence (O43914 22-113 partner): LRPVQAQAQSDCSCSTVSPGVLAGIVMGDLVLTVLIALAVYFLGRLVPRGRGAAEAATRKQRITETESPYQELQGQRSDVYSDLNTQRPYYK

| Structure (SMILES) | Emax [%] | EC50 [nM] |
| --- | --- | --- |
| Cn1c(C(F)(F)F)nc2c(-c3ccc(C#N)cc3F)nc(N3CC(Oc4cncnc4)C3)nc2c1=O [Example 27, 3-fluoro-4-(7-methyl-8-oxo-2-(3-(pyrimidin-5-yloxy)azetidin-1-yl)-6-(trifluoromethyl)-7,8-dihydropyrimido[5,4-d]pyrimidin-4-yl)benzonitrile] | < 75 | 100 to 1000 |
| Cc1cc(OC2CN(c3nc(-c4ccc(F)cc4F)c4nc(C(F)(F)F)n(C)c(=O)c4n3)C2)ccn1 [Example 30, 8-(2,4-difluorophenyl)-3-methyl-6-(3-((2-methylpyridin-4-yl)oxy)azetidin-1-yl)-2-(trifluoromethyl)pyrimido[5,4-d]pyrimidin-4(3H)-one] | 75 to 110 | 10 to 100 |
| Cn1c(C(F)(F)F)nc2c(-c3ccc(F)cc3F)nc(N3CC(Oc4cnn(C5CC5)c4)C3)nc2c1=O [Example 32, 6-(3-((1-cyclopropyl-1H-pyrazol-4-yl)oxy)azetidin-1-yl)-8-(2,4-difluorophenyl)-3-methyl-2-(trifluoromethyl)pyrimido[5,4-d]pyrimidin-4(3H)-one] | < 75 | 10 to 100 |
| Cn1c(C(F)(F)F)nc2c(-c3ccc(C#N)cc3F)nc(N3CC(Oc4cnn(C(F)F)c4)C3)nc2c1=O [Example 14, 4-(2-(3-((1-(difluoromethyl)-1H-pyrazol-4-yl)oxy)azetidin-1-yl)-7-methyl-8-oxo-6-(trifluoromethyl)-7,8-dihydropyrimido[5,4-d]pyrimidin-4-yl)-3-fluorobenzonitrile] | 75 to 110 | 10 to 100 |
| Cn1c(C(F)(F)F)nc2c(-c3ccc(C#N)cc3F)nc(N3CC(Oc4cnn(C5CC5)c4)C3)cc2c1=O [Example 41, 4-(6-(3-((1-cyclopropyl-1H-pyrazol-4-yl)oxy)azetidin-1-yl)-3-methyl-4-oxo-2-(trifluoromethyl)-3,4-dihydropyrido[3,4-d]pyrimidin-8-yl)-3-fluorobenzonitrile] | 75 to 110 | 100 to 1000 |
| CC(C)n1cc(OC2CN(c3nc(-c4ccc(C#N)cc4F)c4nc(C(F)(F)F)n(C)c(=O)c4n3)C2)cn1 [Example 11, 3-fluoro-4-(2-(3-((1-isopropyl-1H-pyrazol-4-yl)oxy)azetidin-1-yl)-7-methyl-8-oxo-6-(trifluoromethyl)-7,8-dihydropyrimido[5,4-d]pyrimidin-4-yl)benzonitrile] | 75 to 110 | 10 to 100 |
| Cc1nn(C)cc1OC1CN(c2nc(-c3ccc(C#N)cc3F)c3nc(C(F)(F)F)n(C)c(=O)c3n2)C1 [Example 10, 4-(2-(3-((1,3-dimethyl-1H-pyrazol-4-yl)oxy)azetidin-1-yl)-7-methyl-8-oxo-6-(trifluoromethyl)-7,8-dihydropyrimido[5,4-d]pyrimidin-4-yl)-3-fluorobenzonitrile] | < 75 | 100 to 1000 |
| Cc1cncc(OC2CN(c3nc(-c4ccc(C#N)cc4F)c4nc(C(F)(F)F)n(C)c(=O)c4n3)C2)n1 [Example 6, 3-fluoro-4-(7-methyl-2-(3-((6-methylpyrazin-2-yl)oxy)azetidin-1-yl)-8-oxo-6-(trifluoromethyl)-7,8-dihydropyrimido[5,4-d]pyrimidin-4-yl)benzonitrile] | < 75 | 100 to 1000 |
| Cn1c(C(F)(F)F)nc2c(-c3ccc(C#N)cc3F)nc(N3CC(Oc4cnnc(Cl)c4)C3)nc2c1=O [Example 26, 4-(2-(3-((6-chloropyridazin-4-yl)oxy)azetidin-1-yl)-7-methyl-8-oxo-6-(trifluoromethyl)-7,8-dihydropyrimido[5,4-d]pyrimidin-4-yl)-3-fluorobenzonitrile] | < 75 | 100 to 1000 |
| Cn1c(C(F)(F)F)nc2c(-c3ccc(C#N)cc3)nc(N3CC(Oc4cnn(C5CC5)c4)C3)nc2c1=O [Example 35, 4-(2-(3-((1-cyclopropyl-1H-pyrazol-4-yl)oxy)azetidin-1-yl)-7-methyl-8-oxo-6-(trifluoromethyl)-7,8-dihydropyrimido[5,4-d]pyrimidin-4-yl)benzonitrile] | 75 to 110 | 10 to 100 |
| Cn1ncc(OC2CN(c3nc(-c4ccc(C#N)cc4F)c4nc(C(F)(F)F)n(C)c(=O)c4n3)C2)c1Cl [Example 13, 4-(2-(3-((5-chloro-1-methyl-1H-pyrazol-4-yl)oxy)azetidin-1-yl)-7-methyl-8-oxo-6-(trifluoromethyl)-7,8-dihydropyrimido[5,4-d]pyrimidin-4-yl)-3-fluorobenzonitrile] | 75 to 110 | 100 to 1000 |
| Cc1ncncc1OC1CN(c2nc(-c3ccc(C#N)cc3F)c3nc(C(F)(F)F)n(C)c(=O)c3n2)C1 [Example 29, 3-fluoro-4-(7-methyl-2-(3-((4-methylpyrimidin-5-yl)oxy)azetidin-1-yl)-8-oxo-6-(trifluoromethyl)-7,8-dihydropyrimido[5,4-d]pyrimidin-4-yl)benzonitrile] | < 75 | 100 to 1000 |
| Cn1c(C(F)(F)F)nc2c(-c3ccc(F)cc3F)nc(N3CC(Cc4cnn(C5CC5)c4)C3)nc2c1=O [Example 31, 6-(3-((1-cyclopropyl-1H-pyrazol-4-yl)methyl)azetidin-1-yl)-8-(2,4-difluorophenyl)-3-methyl-2-(trifluoromethyl)pyrimido[5,4-d]pyrimidin-4(3H)-one] | 75 to 110 | 100 to 1000 |
| Cn1cc(-c2nc(N3CC(Oc4cnn(C5CC5)c4)C3)nc3c(=O)n(C)c(C(F)(F)F)nc23)ccc1=O [Example 39, 6-(3-((1-cyclopropyl-1H-pyrazol-4-yl)oxy)azetidin-1-yl)-3-methyl-8-(1-methyl-6-oxo-1,6-dihydropyridin-3-yl)-2-(trifluoromethyl)pyrimido[5,4-d]pyrimidin-4(3H)-one] | 75 to 110 | 100 to 1000 |
| Cn1c(C(F)(F)F)nc2c(-c3ccc(C#N)cc3F)nc(N3CC(Oc4cnn(CC(F)(F)F)c4)C3)nc2c1=O [Example 19, 3-fluoro-4-(7-methyl-8-oxo-2-(3-((1-(2,2,2-trifluoroethyl)-1H-pyrazol-4-yl)oxy)azetidin-1-yl)-6-(trifluoromethyl)-7,8-dihydropyrimido[5,4-d]pyrimidin-4-yl)benzonitrile] | 75 to 110 | 10 to 100 |
| Cn1c(C(F)(F)F)nc2c(-c3ccc(C#N)cc3F)nc(N3CC(Oc4ccnc(C5CC5)c4)C3)nc2c1=O [Example 22, 4-(2-(3-((2-cyclopropylpyridin-4-yl)oxy)azetidin-1-yl)-7-methyl-8-oxo-6-(trifluoromethyl)-7,8-dihydropyrimido[5,4-d]pyrimidin-4-yl)-3-fluorobenzonitrile] | 75 to 110 | 10 to 100 |
| Cn1c(C(F)(F)F)nc2c(-c3ccc(C#N)cc3F)nc(N3CC(Oc4cnn(CC5CC5)c4)C3)nc2c1=O [Example 15, 4-(2-(3-((1-(cyclopropylmethyl)-1H-pyrazol-4-yl)oxy)azetidin-1-yl)-7-methyl-8-oxo-6-(trifluoromethyl)-7,8-dihydropyrimido[5,4-d]pyrimidin-4-yl)-3-fluorobenzonitrile] | > 110 | 10 to 100 |
| Cc1n[nH]c(C)c1OC1CN(c2nc(-c3ccc(C#N)cc3F)c3nc(C(F)(F)F)n(C)c(=O)c3n2)C1 [Example 9, 4-(2-(3-((3,5-dimethyl-1H-pyrazol-4-yl)oxy)azetidin-1-yl)-7-methyl-8-oxo-6-(trifluoromethyl)-7,8-dihydropyrimido[5,4-d]pyrimidin-4-yl)-3-fluorobenzonitrile] | 75 to 110 | 100 to 1000 |
